Test results: publication PMC4691143, “Biochemical Characterization of An Arginine-Specific Alkaline Trypsin from Bacillus licheniformis” (International Journal of Molecular Sciences, 2015)

Test system: T1, B. licheniformis DMN6 trypsin (arginine-specific alkaline trypsin)
T1 construct: gene BLDMN6; native secreted enzyme purified from DMN6 culture supernatant (DEAE, Superdex 75); 44 kDa by SDS-PAGE
Assay: spectrophotometric hydrolysis at […] nm, Lineweaver-Burk
Type: biochemical, Bacillus licheniformis
Settings: 25 °C, 50 mM Tris-HCl pH 9.0, 0.1-1.5 mM BAEE

In the case of `CCOC(=O)[C@H](CCCNC(=N)N)NC(=O)c1ccccc1` [BAEE], the Km is reported as 880 µM.
